Reference: patent publication US9505792B2, “Forms of cidofovir” (Johnson Matthey Public Limited Company, priority 2011, dated 2016)

Test: Occupational exposure assessment (full monograph) of the final product
Details: final crystalline cidofovir dihydrate product; remains within category band 5 (safebridge category 3)
Text: A full monograph for the final crystalline cidofovir dihydrate product (compound 9) has been completed and it was confirmed that, with an OEL of 0.6 μgm^−3, the product remains within category band 5 (safebridge category 3).

Nc1ccn(C[C@@H](CO)OCP(=O)(O)O)c(=O)n1 [compound 9, cidofovir dihydrate]
OEL: 0.6 μgm^−3
